Laboratory results reported in patent US4088778A, “Method for the treatment of hypertension” (priority 1975, dated 1978).

How the values were obtained:
Acute toxicity on rats = type: in vivo; settings: mice and rats, maximum amount that can be administered
Source text: Toxicities of TN and TA will now be described.

[1] = Teratogenetic property test; type: in vivo, pregnant mice or pregnant rats; settings: orally, 100 to 1200 mg/Kg
Source text: (C) Teratogenetic Property Test:

[2] = Experiment on young SHR (rats of spontaneous hypertension); type: in vivo, rats (7-week-old female SHR); settings: for dead rats within 6 weeks from the start of the administration: control 5 among 11; for dead rats within 2 weeks from the start of administration: judged pneumonia, control 3
Description: Experiments were conducted by using two classes of rats of spontaneous hypertension (hereinafter referred to as "SHR"; provided by Nippon Rat K.K.) differing in the age. In the first experiment, 9-month-old chronic […] SHR (hereinafter referred to as "old SHR"), and in the second experiment, 7-week-old SHR in which hypertension was advancing (hereinafter referred to as "young SHR") was used.
(B) Experiment on Young SHR:
72 of 7-week-old female SHR (having a body weight of 130 to 175 g) were divided into 9 cages, each consisting of 8 rats. Service water was given as drinking water to rats of two cages among these 9 cages, and these rats were compared with other rats which were given a 1% aqueous solution of sodium chloride as drinking water. In each of the […] cages of rats to which the sodium chloride solution was given, no agent was administered to 2 of 8 rats, 20 mg/Kg of TN was administered to another 2 rats, 100 mg/Kg of TN was administered to still another 2 rats, and 88 mg/Kg of TA was administered to the remaining 2 rats.
After 2 weeks' feeding with the sodium chloride solution, administration was conducted once a day. Within 2 weeks from the start of administration,3 rats in the Control (non-administered) group, one rat in the 20 mg/Kg TN administered group, 3 rats in the 100 mg/Kg TN administered group, 3 rats in the 88 mg/Kg TA administered group and 4 rats in the service water given group were dead. In view of the body weight decrease and the snivel secretion and from the results of autopsy, it was judged that each of them died of pneumonia. The rats that died prior to initiation of the administration were not taken in account in evaluating the experimental results.

[3] = Clinical Test I, double blind: general improvement; type: in vivo, human patients; settings: for General improvement: Not Changed / General improvement: Partial Improvement / General improvement: Remarkable Improvement / General improvement: Slight Improvement / General improvement: Worsened: number of patients
Description: Two capsules were orally administered at one time, and the administration was conducted three times a day after eating. The period of the administration was principally 4 weeks or 6 weeks. During this period, the administration was performed continuously. Combined administration of drugs having the same function as that of TN (vitamin E drugs, nicotinic acid, its derivatives and peripheral vasolidators) was prohibited.
The general improvement was evaluated by the attendant physician based on subjective symptoms and test results according to the following scale:
i: remarkable improvement
When 2, 4 or 6 weeks had passed from the start of the administration, the improvement was evaluated based on the symptoms before the administration.

[4] = Clinical Experiment II, double blind: blood pressure; type: in vivo, human patients; settings: for Maximum Pressure, Average Value, all patients / Maximum Pressure, Average Value, patients of hypertension / Maximum Pressure, Average Value, no hypotensive agent in combination with TN / Maximum Pressure, Average Value, hypotensive agent administered in combination with TN: in mmHg (unit assumed)
Description: Results of the clinical experiment conducted according to the double blind method in a different hospital will now be described.
(§1) 75 patients of hypertension or arteriosclerosis having subjective symptoms were tested. Some of them suffered from complications such as ischemia heart disease and cerebral thrombosis. They are detailed in Table 11.
(§2) Two capsules were administered at one time, and the administration was conducted 3 times per day after eating. The duration of the continuous administration was 4 weeks. Combined use of drugs having the same functions as those of TN (vitamin E drugs, nicotinic acid, its derivatives and peripheral vasolidators) and minor tranquilizers was prohibited.
(a) Results of Blood Pressure Test: Variations of the blood pressure in all the patients and in the patients of hypertension alone are shown in Tables 12 and 13.
The change of the blood pressure in the patients of hypertension to whom a hypotensive agent was administrated in combination with TN is shown in Table 14, and the change of the blood pressure in the patients to whom no hypotensive agent was administrated in combination with TN is shown in Table 15.
In each of the foregoing Tables, N indicates the number of the patients, and S.D. denotes the standard deviation.

[5] = Clinical Experiment II: urine test; type: in vivo, human patients
Description: as §1, §2

[6] = Clinical Experiment II: improvement of subjective symptoms; type: in vivo, human patients
Description: as §1, §2
Changes of various subjective symptoms of patients of hypertension were collectively examined, and at the time of termination of the administration, the degrees of improvements were judged and evaluated in both the TN administered group and the P group, to obtain results shown in Table 22.

[7] = Clinical Experiment II: general improvement; type: in vivo, human patients
Description: as §1, §2
With respect to patients of hypertension alone, the general improvement was evaluated collectively based on subjective symptoms and clinical test data to obtain results shown in Table 23.

Solubility = type: physicochemical
[8] = conclusion of both clinical experiments
[9] = level of significance lower than 5%

Compound: Cc1c(C)c2c(c(C)c1OC(=O)c1cccnc1)CCC(C)(CCCC(C)CCCC(C)CCCC(C)C)O2 (racemic) [TN, dl-α-tocopheryl nicotinate]
- animals killed in acute toxicity test (Acute toxicity on rats): no test animal was killed
- influences on mother animals, embryos and newborn babies [1]: no influences were observed
- teratogenetic property [1]: no teratogenetic property
- dead rats within 6 weeks from the start of the administration ([2]; 20 mg/kg TN, among 13 rats): 3 rats
- dead rats within 2 weeks from the start of administration ([2]; 20 mg/kg TN): one
- dead rats within 6 weeks from the start of the administration ([2]; 100 mg/kg TN, among 11 rats): 4 rats
- dead rats within 2 weeks from the start of administration ([2]; 100 mg/kg TN): 3 rats
- general improvement ratio over time ([3]; 2, 4, 6 weeks): the improvement ratio was increased every two weeks
- General improvement: Improvement Ratio ([3]; 2 weeks, total 38, P group 68.6 %): 73.7%
- significance of general improvement versus P group ([3]; 4 to 6 weeks): significantly better results were obtained in the TN group than in the P group
- General improvement: Improvement Ratio ([3]; 4 weeks, total 39, P group 61.1 %, P = 0.0127): 87.2%
- General improvement: Improvement Ratio ([3]; 6 weeks, total 21, P group 63.6 %, P = 0.0094): 95.2%
- General improvement: Not Changed ([3]; 2 weeks, total 38): 9
- General improvement: Partial Improvement ([3]; 2 weeks, total 38): 13
- General improvement: Remarkable Improvement ([3]; 2 weeks, total 38): 6
- General improvement: Slight Improvement ([3]; 2 weeks, total 38): 9
- General improvement: Worsened ([3]; 2 weeks, total 38): 1
- General improvement: Not Changed ([3]; 4 weeks, total 39): 5
- General improvement: Partial Improvement ([3]; 4 weeks, total 39): 14
- General improvement: Remarkable Improvement ([3]; 4 weeks, total 39): 6
- General improvement: Slight Improvement ([3]; 4 weeks, total 39): 14
- General improvement: Worsened ([3]; 4 weeks, total 39): 0
- General improvement: Not Changed ([3]; 6 weeks, total 21): 1
- General improvement: Partial Improvement ([3]; 6 weeks, total 21): 7
- General improvement: Remarkable Improvement ([3]; 6 weeks, total 21): 8
- General improvement: Slight Improvement ([3]; 6 weeks, total 21): 5
- General improvement: Worsened ([3]; 6 weeks, total 21): 0
- hypotensive effect as compared with the P group ([4]; Tables 12 to 15, hypertension alone significant at level lower than 5%): the hypotensive effect was attained in the TN administrated group as compared with the P group
- Maximum Pressure, Average Value, all patients ([4]; after administration (200 mg TN 3 times per day, 4 weeks), N 35, S.D. ±23.65): 141.40
- Minimum Pressure, Average Value, patients of hypertension ([4]; after administration (4 weeks), N 22, S.D. ±13.08): 87.45
- Maximum Pressure, Average Value, patients of hypertension ([4]; after administration (4 weeks), N 22, S.D. ±20.69, P < 0.05): 148.59
- Minimum Pressure, Average Value, all patients ([4]; after administration (4 weeks), N 35, S.D. ±13.64): 81.89
- Minimum Pressure, Average Value, no hypotensive agent in combination with TN ([4]; after administration, N 8, S.D. ±13.34): 87.50
- Maximum Pressure, Average Value, no hypotensive agent in combination with TN ([4]; after administration, N 8, S.D. ±19.95, P < 0.1): 146.13
- Minimum Pressure, Average Value, hypotensive agent administered in combination with TN ([4]; after administration, N 14, S.D. ±13.44): 87.43
- Maximum Pressure, Average Value, hypotensive agent administered in combination with TN ([4]; after administration, N 14, S.D. ±21.71): 150.00
- Minimum Pressure, Average Value, no hypotensive agent in combination with TN ([4]; before administration, N 8, S.D. ±16.40): 87.75
- Maximum Pressure, Average Value, no hypotensive agent in combination with TN ([4]; before administration, N 8, S.D. ±22.60): 161.50
- Minimum Pressure, Average Value, hypotensive agent administered in combination with TN ([4]; before administration, N 14, S.D. ±10.75): 89.71
- Maximum Pressure, Average Value, hypotensive agent administered in combination with TN ([4]; before administration, N 14, S.D. ±17.29): 159.29
- Minimum Pressure, Average Value, patients of hypertension ([4]; before administration, N 22, S.D. ±12.74): 89.00
- Maximum Pressure, Average Value, patients of hypertension ([4]; before administration, N 22, S.D. ±18.88): 160.09
- Minimum Pressure, Average Value, all patients ([4]; before administration, N 38, S.D. ±14.78): 81.37
- Maximum Pressure, Average Value, all patients ([4]; before administration, N 38, S.D. ±25.14): 144.63
- efficacy and safety conclusion [4, 8]: very effective and safe hypotensive agent
- hypotensive effect on patients of hypertension versus P group [4, 8]: higher in the TN administered group than in the P group
- effect durability ([4]; general conclusion): high effect durability
- urine specific Gravity, Average Value ([5]; after administration, N 25, S.D. ±5.34): 1017.92
- urine specific Gravity, Average Value ([5]; before administration, N 25, S.D. ±5.56): 1017.56
- Improvement of subjective symptoms: Improvement Ratio ([6]; P group 52.94, P < 0.05): 86.36%
- degree of improvement of subjective symptoms versus P group [6, 8]: higher than in the P group
- improving rush of blood, dizzy feeling, stiffness in the shoulders, stiffness in the nape, heaviness in the head and insomnia [6, 8]: especially good effects
- degree of improvement of subjective symptoms versus P group [6, 9]: excellent over that in the P group at a level of significance lower than 5%
- Improvement of subjective symptoms: Not Changed ([6]; number of patients, total 22): 3
- Improvement of subjective symptoms: Partial Improvement ([6]; number of patients, total 22): 6
- Improvement of subjective symptoms: Remarkable Improvement ([6]; number of patients, total 22): 7
- Improvement of subjective symptoms: Slight Improvement ([6]; number of patients, total 22): 6
- Improvement of subjective symptoms: Worsened ([6]; number of patients, total 22): 0
- General improvement: Improvement Ratio ([7]; P group 52.94, P < 0.05): 86.36%
- general improvement versus P group ([7]; conclusion of both clinical experiments, significance lower than 0.5%): significantly excellent over that in the P group at a level of significance lower than 0.5%
- general improvement versus P group [7, 9]: excellent over that in the P group at a level of significance lower than 5%
- General improvement: Not Changed ([7]; number of patients, total 22): 3
- General improvement: Partial Improvement ([7]; number of patients, total 22): 7
- General improvement: Remarkable Improvement ([7]; number of patients, total 22): 4
- General improvement: Slight Improvement ([7]; number of patients, total 22): 8
- General improvement: Worsened ([7]; number of patients, total 22): 0
- solubility in organic solvents (Solubility): easily soluble in acetone, benzene, chloroform, ether and ethanol
- solubility in water (Solubility): hardly soluble in water
